SMILES strings stand for the structures.

The assay addresses T1, Human Polymorphonuclear Leukocyte Elastase (Homo sapiens, UniProt P08246).
T1 construct: Crude extract of human polymorphonuclear leukocytes (PMN) containing elastase activity; endogenous in cells; host or cells: human polymorphonuclear leukocytes (crude extract)
T1 sequence (P08246 30-247 limits assumed): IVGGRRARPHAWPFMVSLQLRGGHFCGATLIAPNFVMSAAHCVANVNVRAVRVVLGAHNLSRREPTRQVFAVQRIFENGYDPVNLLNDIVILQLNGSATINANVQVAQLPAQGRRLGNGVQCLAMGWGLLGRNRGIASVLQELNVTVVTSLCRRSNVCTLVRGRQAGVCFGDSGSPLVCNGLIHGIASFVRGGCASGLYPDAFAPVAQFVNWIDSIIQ
The experiment in a line: Inhibition of human polymorphonuclear leukocyte elastase via hydrolysis of N-t-Boc-alanyl-alanyl-prolylalanine-p-nitroanilide. Particulars: measured within 2 minutes, crude PMN extract; for inhibition at 1 µg/mL: Conc. of compound 1 μg/ml; for inhibition at 5 µg/mL: Conc. of compound 5 μg/ml; for inhibition at 20 µg/mL: Conc. of compound 20 μg/ml; for inhibition at 50 µg/mL: Conc. of compound 50 μg/ml; for inhibition at 2 µg/mL: Conc. of compound 2 μg/ml. The assay is classed as biochemical. On the procedure: Protocol--Enzyme Assays for the Inhibition of Human Polymorphonuclear Leukocyte Elastase Via Hydrolysis of N-t-Boc-alanyl-alanyl-prolylalanine-p-nitroanilide
0.05M TES (N-tris[hydroxymethyl]methyl-2-amino-ethanesulfonic acid) Buffer, pH 7.5.
0.2 mM N-t-Boc-alanyl-alanyl-Prolyl-Alanine-p-nitroanilide (Boc-AAPAN).
To prepare substrate, the solid (m.w. 550) was first dissolved in 10.0 ml DMSO. Buffer at pH 7.5 was then added to a final volume of 100 ml.
Crude extract of human polymorphonuclear leukocytes (PMN) containing elastase activity.
Inhibitors (thienamycin esters) to be treated dissolved in DMSO just before use.
To 1.0 ml of 0.2 mM Boc-AAPAN in a cuvette, 0.01-0.1 ml of DMSO with or without inhibitor was added. After mixing, a measurement was taken at 410 mμ to detect any spontaneous hydrolysis due to presence of test compound. 0.05 Milliliters of PMN extract was then added and the ΔOD/min at 410 mμ was measured and recorded. Beckman model 35 spectrophotometer was used.
The elastase activity in the crude PMN extract may vary from one preparation to another. A control of each new batch is run, and the volume added in the assay procedure is adjusted according to activity.

A word on the inhibition: it is the relative decrease from the control value, in per cent. Read a low inhibition as a response near the control. As for `CC(O)[C@H]1C(=O)N2C(C(=O)OCc3ccc([N+](=O)[O-])cc3)=C(SCCNC(=O)Cc3ccccc3)C[C@H]12` (stereo partly drawn) [COCH2 C6 H5 / H / H / PNB], the inhibition at 1 µg/mL was 47%, the inhibition at 5 µg/mL amounted to 84%, the inhibition at 20 µg/mL is 95% and at 50 µg/mL the inhibition was 100%.

In turn, `CC(O[Si](C)(C)C)[C@H]1C(=O)N2C(C(=O)OCc3ccc([N+](=O)[O-])cc3)=C(SCCN3C(=O)c4ccccc4C3=O)C[C@H]12` (stereo partly drawn) [phthaloyl / TMS / PNB] had an inhibition at 1 µg/mL of 38%, an inhibition at 2 µg/mL of 83% and an inhibition at 50 µg/mL of 96%. Further, for the setting “Conc. of compound 10 μg/ml”, 10 µg/mL produced 95% inhibition. Under “Conc. of compound 25 μg/ml”, this molecule gave an inhibition at 25 µg/mL of 95%.

In the case of `CC(O)[C@H]1C(=O)N2C(C(=O)OCc3ccccc3)=C(SCCN3C(=O)c4ccccc4C3=O)C[C@H]12` (stereo partly drawn) [phthaloyl / H / benzyl], at 1 µg/mL the inhibition was 39%, the inhibition at 2 µg/mL was 56%, the inhibition at 5 µg/mL amounted to 89% and the inhibition at 20 µg/mL came to 100%.

`CC(O)[C@H]1C(=O)N2C(C(=O)OCc3ccc([N+](=O)[O-])cc3)=C(SCCN3C(=O)c4ccccc4C3=O)C[C@H]12` (stereo partly drawn) [phthaloyl / H / PNB] returned an inhibition at 1 µg/mL of 76%, an inhibition at 2 µg/mL of 86%, an inhibition at 5 µg/mL of 93% and an inhibition at 20 µg/mL of 100%. Under “Conc. of compound .5 μg/ml”, this molecule displayed an inhibition at 0.5 µg/mL of 50%.

As for `CCCC(=O)NCCSC1=C(C(=O)OCc2ccc([N+](=O)[O-])cc2)N2C(=O)[C@H]([C@@H](C)OC(C)=O)[C@H]2C1` [COCH2 C2 H5 / H / Ac / PNB], testing at 5 µg/mL gave an inhibition of 31%, the inhibition at 20 µg/mL came out at 69% and the inhibition at 50 µg/mL turned out to be 89%.

For the origin of these results see patent US4465687A, “Thienamycin derivatives as anti-inflammatory agents” (Merck & Co., Inc., priority 1982, dated 1984).
